From US11103525B2, “Idoxuridine and its analogs as neuroprotectans for the treatment of parkinsonism” (priority 2017, dated 2021)

Experiments:
Assay type in all cases: cell-based, mouse
WT cells = experiment: Cytoprotection against Eeyarestatin (EeI), WT cells
Experimental: FIG. 9: Cytoprotection of Idoxuridine against Eel. Eeyarestatin (Eel) is a potent inhibitor of endoplasmic reticulum associated protein degradation (ERAD) pathway, specifically targeting p97. Eel-mediated reduction of cell viability is counteracted by idoxuridine in both GPR37-tGFP overexpressing cells (A) and WT (B) cells. Data represented as mean+SD. Analysis performed via one-way ANOVA with Neuman-Keuls post-test for both Figures. *** indicates p<0.001.
Eeyarestatin (EeI) is a potent inhibitor of endoplasmic reticulum associated protein degradation (ERAD) pathway, specifically targeting p97.

N2a-GPR37-tGFP cells = experiment: Cytoprotection against 6-OHDA (MTT assay), N2a-GPR37-tGFP cells; conditions: 2 μM pretreatment 72 h, then 6-OHDA 24 h; compared with N2a-WT cells
Experimental: FIG. 6. GPR37-associated cytoprotection of Idoxuridine against parkinsonian drug 6-OHDA. N2a-WT and N2a-GPR37-tGFP cells were grown in differentiating medium containing either 2 μM idoxuridine, 0.1% DMSO (negative control) or 1 mM dbcAMP (positive control). 72 h later cells were treated with either 6-OHDA (10, 20, 35 100 μM) or vehicle control and incubated for 24 h. Cell viability was quantified by MTT assay. Data are pooled from three independent experiments with 6 technical replicates for each condition and are expressed as means+/−SD. To assess the […] effect of idoxuridine against 6-OHDA-toxicity data were analyzed using a 2-way ANOVA followed by a Bonferroni correction test. Each cell line was statistically analyzed separately, with pretreatment and 6-OHDA treatment as variables; or GPR37 expression and 6-OHDA-treatment as variables. For simplicity, only idoxuridine related significance is indicated; significances between positive and negative controls are not shown; ****p<0.0001, ***p<0.001, **p<0.01. Test compound (5 μL) of desired concentration (Idoxuridine, final concentration 2 μM); positive control (dibutyryl-cAMP, final concentration 1 mM); and negative control (DMSO, final concentration 0.1%) were plated in a 96-well plate. […] Absorbance was measured at 570 nm (formazan product) and at 650 nm (reference) using a Tecan Spark® 10M microplate reader. […]

GPR37-tGFP = GPR37-tGFP translocation assay; conditions: 72 h
Experimental: FIG. 2. Schematic representation of the rationale and the basic steps of GPR37-translocation assay. A. GPR37 is prone to misfolding and aggregation, which, in metabolically-active cells, are followed by degradation and results in low levels of functional receptor in the plasma membrane. The primary targets of the screening assay are compounds that can directly or indirectly facilitate maturation and trafficking of GPR37 to the plasma membrane. B. N2a cells stably expressing GPR37-tGFP are seeded in poly-D-Lysine coated 384 well plates at density 5000 cells/well. 24 h later cells are treated with compounds, including positive and negative controls, and incubated for 72 h. Then cells are fixed with 4% PFA and additionally stained with Hoechst 33342 (nuclei) and HCS CellMask™ red (cell body) to enable segmentation of the plasma membrane. Acquisition of fluorescence images is done using ImageXpress high content screening system (Molecular Devices). Quantification of GPR37-tGFP levels in the plasma membrane is done using CellProfiler software. FIG. 3. Schematic representation of Image analysis pipeline and final outcome data. Segmentation of the plasma membrane is performed in five main steps: 1) identification of nuclei (primary objects) using nuclear stain, 2) determination of cell borders using primary objects as seeds and growing these objects in respect of tGFP and HCS CellMask™ fluorescence intensity (secondary objects), 3) shrinking and expending secondary objects, 4) subtraction of shrunken cells from expended cells which results in membrane segmentation (tertiary objects), 5) tGFP fluorescence intensity is calculated within tertiary objects. Z′ factor is a quality measure of an assay which describes how well separated positive and negative controls are. Assays having Z′ factors above 0.5 are considered good assays. N2a cells stably expressing GPR37-tGFP were seeded in 384 BDFalcon BioCoat Poly-D-Lysine coated plates at a density of 5000 cells/well, and 50 μL incubation volume of maintenance medium. Cells were incubated at 37° C., 5% CO2 using humidity chamber. 24 h later, the cells were treated with 10 μL of compounds of desired concentration, including positive (2 mM dibutyryl-cAMP+0.5 mM 4-phenylbutyrate) and negative controls (0.1% DMSO), and incubated for 72 h. Cells were fixed with 4% PFA by adding 20 μL of 16% PFA directly to cell medium, incubating for 20 min and washing with PBS-Tween20 (0.05%). Directly after fixation cells were stained for nuclei with Hoechst 33342 (0.01 mg/mL) and for cell bodies with HCS CellMask™ Red stain (Thermo Fisher Scientific Inc.) (0.001 mg/mL) by incubating with the dyes for 30 min in PBS-Tween20 (0.05%) followed by washing with PBS. All the additional steps, including cell seeding were performed using Multidrop Combi dispenser (Thermo Scientific) and washing steps were done by means of HydroSpeed™ plate washer (Tecan). The images were captured using ImageXpress Micro XLS Widefield High-Content Analysis System (Molecular Devices, LLC) in 3 fluorescent channels (ImageXpress filters are listed, followed by excitation/emission in nm): DAPI (387/447), FITC (482/536) and TexasRed (562/624). Binning 2 was applied during the acquisition and digital confocal option was used for FITC and TexasRed filters. Typically, 5 images were taken per well at magnification 20× and stored as 16 bit, gray scale tif files along with metadata in Oracle database, for further analysis. Quantification of GPR37-tGFP levels in the plasma membrane was done using CellProfiler™ software. CellProfiler™ is an open-source cell image analysis software available at www.cellprofiler.org. An image analysis pipeline used for membrane segmentation consisted of 5 main steps (FIG. 3): 1) segmentation of nuclei (primary objects); 2) segmentation of cell bodies (secondary objects); 3) shrinking and expending cell bodies; 4) subtraction of shrank cells from expanded cells (tertiary objects—membranes); 5) calculating tGFP fluorescence in the membranes. […]

O=c1[nH]c(=O)n([C@H]2C[C@H](O)[C@@H](CO)O2)cc1I [Idoxuridine, 2′-deoxy-5-iodouridine]
effect on EeI-mediated reduction of cell viability (WT cells): counteracted
cytoprotective effect against 6-OHDA (cell viability, MTT) (N2a-GPR37-tGFP cells): significantly higher effect
concentration up to which GPR37-tGFP level at the plasma membrane increases in a dose response manner (GPR37-tGFP; dose response): around 5 μM
EC50 (GPR37-tGFP; dose response, read-out: concentration giving 50% activity of positive control (GPR37-tGFP level at the plasma membrane)): ~1000 nM
GPR37-tGFP level in the plasma membrane, activity of positive control (GPR37-tGFP; primary screen, 10 μM, positive control (dibutyryl-cAMP + 4-phenylbutyrate) = 100%): about 100%
